According to US9809640B2, “ApoE peptide dimers and uses thereof” (priority 2010, dated 2017):
Non-standard residues stand in square brackets, D forms with d. No end group written: not given here. Aib = CC(C)(N)C(=O)O

How the values were obtained:
[1] = Mouse toxicity, maximum tolerated dose by intravenous injection; settings: in vivo, maximum dose by intravenous injection without deaths after 24 hrs
Excerpt: We also evaluated the various peptides for efficacy in suppressing nitric oxide production induced by LPS stimulation of BV2 microglia cells as a measure of anti-inflammatory activity as well as the maximum dose tolerated in mice (Table I and FIG. 6A). For the LPS assay, EC50 is the concentration of compound that caused a 50% suppression of nitric oxide release from BV2 cells following LPS stimulation. For mouse toxicity, MTD is the maximum dose of the compound that can be given by intravenous injection without causing deaths after 24 hrs. […] Coupling the ApoE domain to a protein transduction domain further enhanced the potency of the dimers.

[2] = tested on: MDA-MB-231 breast cancer cells; type: cell-based; settings: 48 hours, MTT
Experimental: (§1) FIG. 14A: Dose response curve of COG445 on proliferation of U87 (open circles) and MDA-MB-231 (filled circles) cells as measured by MTT reduction. FIG. 14B: Dose response curve of COG445 on proliferation of MDA-MB-231 cells as measured by cell count.
Next, we examined the potency of an ApoE peptide dimer versus the monomeric form on proliferation of the MDA-MB-231 breast cancer cell line. MDA-MB-231 cells were treated with various concentrations of either COG435 (monomer; SEQ ID NO: 90) or COG493 (a BMOE-linked dimer of COG 435) peptides for 48 hours. Following peptide treatment, cells were quantified using a MTT assay.
(§2) Because COG445 inhibited Akt activation and downstream signaling, we examined the effects of COG445 on cellular proliferation. Adherent MB231 and U87 cells were grown for ˜24 hours in the presence of COG445 and cellular proliferation was measured by MTT reduction. […] Furthermore, COG445 inhibited MB231 cellular proliferation as determined by cell count (FIG. 14B). Approximately 6×10^4 cells were plated in growth media (RPMI+10% FBS) for 24-hours with increasing concentrations of COG445. […] However at concentrations ≧1 μM COG445, there appears to be a loss of cells. This is partially explained by decreased proliferation, although it is possible that the rate of cellular degradation was increased in the presence of COG445.

U87MG glioblastoma cells = type: cell-based; settings: MTT
Experimental: as §1
To determine whether ApoE peptide dimers were cytotoxic to other types of cancer, we evaluated the effect of three different ApoE BMOE-linked peptide dimers (COG449, COG492, COG493; see Table I) on the growth characteristics of U87MG glioblastoma cells. Various concentrations of COG449, COG492, COG493 or Sorafenib were used to treat U87MG glioblastoma cells and viable cells were quanititated using MTT. Sorafenib, which has previously been reported to be cytotoxic to glioblastoma cells (Yang et al. (2010) Mol Cancer Ther., Vol. 9(4):953-962), was used as a positive control.
as §2

BV2 microglia cells = settings: previously shown; cited from earlier work

Molecule	MTD at 24 h [1] [mg/kg]	cytotoxicity to MDA-MB-231 cells, dimer versus monomer COG435 [2]	cytotoxicity to U87MG cells (U87MG glioblastoma cells)	anti-inflammatory activity relative to COG133 in NO release assays (BV2 microglia cells)
CC(=O)N[C@@H](Cc1c[nH]c2ccccc12)C(=O)N[C@@H](CCCCN)C(=O)N[C@@H](CCCCN)C(=O)N[C@@H](CSC1CC(=O)N(CCN2C(=O)CC(SC[C@H](NC(=O)[C@H](CCCCN)NC(=O)[C@H](CCCCN)NC(=O)[C@H](Cc3c[nH]c4ccccc34)NC(C)=O)C(=O)N[C@@H](CC(C)C)C(=O)N[C@@H](CCCNC(=N)N)C(=O)N[C@H](C(=O)N[C@@H](CCCNC(=N)N)C(=O)N[C@@H](CC(C)C)C(=O)N[C@@H](C)C(=O)N[C@@H](CO)C(=O)N[C@@H](Cc3c[nH]cn3)C(=O)N[C@@H](CC(C)C)C(=O)N[C@@H](CCCNC(=N)N)C(=O)N[C@@H](CCCCN)C(=O)N[C@@H](CC(C)C)C(=O)N[C@@H](CCCNC(=N)N)C(=O)N[C@@H](CCCCN)C(=O)N[C@@H](CCCNC(=N)N)C(=O)N[C@@H](CC(C)C)C(=O)N[C@@H](CC(C)C)C(N)=O)C(C)C)C2=O)C1=O)C(=O)N[C@@H](CC(C)C)C(=O)N[C@@H](CCCNC(=N)N)C(=O)N[C@H](C(=O)N[C@@H](CCCNC(=N)N)C(=O)N[C@@H](CC(C)C)C(=O)N[C@@H](C)C(=O)N[C@@H](CO)C(=O)N[C@@H](Cc1c[nH]cn1)C(=O)N[C@@H](CC(C)C)C(=O)N[C@@H](CCCNC(=N)N)C(=O)N[C@@H](CCCCN)C(=O)N[C@@H](CC(C)C)C(=O)N[C@@H](CCCNC(=N)N)C(=O)N[C@@H](CCCCN)C(=O)N[C@@H](CCCNC(=N)N)C(=O)N[C@@H](CC(C)C)C(=O)N[C@@H](CC(C)C)C(N)=O)C(C)C (stereo partly shown) [COG493, WKK-C-LRVRLASHLRKLRKRLL (SEQ ID NO: 90) <BMOE> WKK-C-LRVRLASHLRKLRKRLL (SEQ ID NO: 90)]	20	significantly more cytotoxic	cytotoxic	–
LRVRLAS(Aib)LRKLR(K-Ac)RLL (SEQ ID NO: 35) (LRVRLAS[Aib]LRKLRK(Ac)RLL) [COG345]	–	–	–	improved anti-inflammatory activity
